Source: ChEMBL document CHEMBL5236615, “Discovery of Novel N-Heterocyclic-Fused Deoxypodophyllotoxin Analogues as Tubulin Polymerization Inhibitors Targeting the Colchicine-Binding Site for Cancer Treatment” (J Med Chem, 2022)
The source made the active and inactive calls. The rule behind the calls is not given here.

Columns and labels:
[1] = Toxicity in Balb/c mouse assessed as pathological changes in blood alanine aminotransferase level at 20 mg/kg, ip administered for every 2 days for 14 days; assay type: organism-based; settings: in vivo, 336 h, time 14 day
[2] = Toxicity in Balb/c mouse assessed as pathological changes in blood lactic dehydrogenase level at 20 mg/kg, ip administered for every 2 days for 14 days; assay type: organism-based; settings: in vivo, 336 h, time 14 day
[3] = Clearance in Sprague-Dawley rat at 10 mg/kg, iv measured upto 8 hrs by LC/MS/MS analysis; assay type: ADME, organism-based; settings: in vivo
[4] = Antitumor activity against paclitaxel-resistant human MCF7/TxR cells xenografted in Balb/c mouse assessed as tumor growth inhibition at 10 mg/kg, ip administered for every 2 days for 21 days; assay type: functional; settings: 504 h, time 21 day, read-out: TGI
MCF7 = assay: Induction of cell cycle arrest in human MCF7 cells assessed as CI-PARP at 5 to 20 nM in presence of roscovitine measured after 24 hrs by Western blot analysis; assay type: functional, cell-based; settings: dose 5-20 nM
[5] = AUC (0 to t) in Sprague-Dawley rat at 10 mg/kg, iv measured upto 8 hrs by LC/MS/MS analysis; assay type: ADME, organism-based; design: dose 10 mg/kg, time < 8 hrs, route iv; settings: in vivo
[6] = Toxicity in Balb/c mouse assessed as pathological changes in blood creatine kinase level at 20 mg/kg, ip administered for every 2 days for 14 days; assay type: organism-based; settings: in vivo, 336 h, time 14 day

## COc1c(Cl)cc([C@@H]2c3cc4c(cc3C[C@H]3C(=O)NC(=O)N23)OCCO4)cc1Cl
[1]
  Activity: Non-Toxic
[2]
  Activity: Non-Toxic
[3]
  CL: 65 mL/min/kg
[4]
  inhibition in vivo at 10 mg/kg: 49.2%
MCF7
  Activity: inactive
[5]
  AUCt: 6530 ng·h/mL
[6]
  Activity: Non-Toxic
